Tested on: collagen type III alpha I chain (COL3A1) gene
Assay: Gene expression test: COL3A1 by RT-PCR in normal human dermal fibroblasts
Type: cell-based
Details: normal human dermal fibroblasts (NHDF), 48 hours incubation with actives in medium; normalized to ACTB; fold change relative to blank control; actives in wt % of medium
Description: The normal human dermal fibroblasts (NHDF, Biocell, Xi′an, China, Cat: Fb20081902) were incubated in medium together with or without actives for 48 hours. After incubation, the total RNA for each […] was extracted using RNAex Pro reagent (Accurate Biotechnology, Cat: AG21102) according to manufacturer's protocol.
The extracted RNA was quantified using Nanodrop 2000 spectrometer (Thermo Fisher Scientific, Waltham, MA, US) and reverse transcribed to generate the template cDNA using the Evo M-MLV RT Premix for qPCR (Accurate Biotechnology, Cat: AG11706) according to manufacturer's protocol. Amplification of the gene encoding collagen type III alpha I chain (COL3A1) gene was performed with RT-PCR reagent (SYBR® Green Premix Pro Taq HS qPCR Kit, Accurate Biotechnology, Cat: AG11701) on the ABI Vii 7 Real-Time PCR Systems (Applied Biosystems, Thermo fisher scientific, Carlsbad, CA, USA). The beta-actin (ACTB) gene was selected as the housekeeping gene and all data on relative expression of the target genes was normalized to ACTB gene. The fold changes in expression were calculated relative to the blank control (medium having no active).

Lysine carboxymethyl cysteinate
Fold change of expression of COL3A1: 1.1

Source: patent publication US20260183223A1, “A PERSONAL CARE COMPOSITION” (Conopco, Inc., d/b/a UNILEVER, priority 2022, published 2026)
